“And” between values parts separate entries of the source, which are not always exact repeats. Equal entries are not always repeated.
Columns and labels:
[1] = Plasma concentration of active ingredient in patients, measured by HPLC (Example 3); type: in vivo, human
Description: To a total of 11 patients, a single dose of 2.0 mg, 4.0 mg, or 6.0 mg of tamibarotene was administered.
Moreover, to a total of 6 patients, repeated doses of 8.0 mg or 10.0 mg of tamibarotene were administered.
For the 2.0 mg dose, one tablet (2 mg of tamibarotene) was administered after breakfast using a tablet of 2 mg tamibarotene; for the 4.0 mg dose, one tablet (2 mg of tamibarotene) was administered after breakfast and one tablet (2 mg of tamibarotene) was administered after dinner; and for the 6.0 mg dose, two tablets (4 mg of tamibarotene) were administered after breakfast and one tablet (2 mg of tamibarotene) was administered after dinner.
For the 8.0 mg dose, two tablets (4 mg of tamibarotene) after breakfast and two tablets (4 mg of tamibarotene) after dinner were administered repeatedly for 35 to 46 days, using a tablet of 2 mg tamibarotene. For the 10.0 mg dose, three tablets (6 mg of tamibarotene) after breakfast and two tablets (4 mg of tamibarotene) after dinner were administered repeatedly for 34 to 59 days, using a tablet of 2 mg tamibarotene. […]

[2] = system: chronic graft versus host disease (chronic GVHD); experiment: Clinical study of efficacy and safety of tamibarotene for chronic GVHD (Examples 1 and 2); type: in vivo, human; settings: for Eyeball: subjects with improvement in Schirmer's test: out of the 18 subjects; for subjects for whom the overall judgment was PR: oral, start 4 mg per day, with PSL/steroid
Description: Tamibarotene was administered to a patient with chronic graft versus host disease (chronic GVHD) after allogeneic hematopoietic stem cell transplantation, and efficacy thereof was studied. Main selection criteria for subjects are as follows: • (A) An age is 18 years or older and younger than 85 years • (B) A Karnofsky performance status (KPS) is 60 or more • (C) A steroid treatment-refractory or steroid treatment-dependent patient who has started treatment with 0.5 mg/kg or more of PSL (prednisolone) (or received corresponding steroid treatment) as a first-line treatment, and who falls under any of the following (1) through (4): • (1) A patient who needs additional treatment because of exacerbation even after 1 mg/kg or more of PSL has been administered for 2 weeks; • (2) A patient who has not been ameliorated after 4 weeks of treatment, including administration of 0.5 mg/kg or more of PSL for 2 weeks, and needs additional treatment. • (3) A patient whose GVHD symptom has relapsed or worsened within a period in which the dose of the steroid was reduced • (4) A steroid treatment-dependent patient for whom a dose reduction from 10 mg/day (or corresponding steroid treatment) is difficult Tamibarotene was administered to 18 subjects. As the administration method, 2 mg tablets of tamibarotene were administered orally for 24 weeks. The administration was started with 2 doses (a 2 mg tablet, twice) after breakfast and dinner, i.e., 4 mg (equivalent to 3 mg/m^2) per day. PSL or steroid administration was also continued daily. 2 mg tablets of tamibarotene were administered orally for 24 weeks. Administration was started at 4 mg (equivalent to 3 mg/m^2) per day, i.e., twice daily after breakfast and dinner (one 2 mg tablet in each of the morning and evening). If an adverse event was mild (grade 0 to 1), the dose could be increased to 8 mg per day (two 2 mg tablets in each of the morning and evening) after 4 weeks of continuation (in a case of 6 mg per day, two 2 mg tablets were to be taken after breakfast and one 2 mg tablet after dinner). In a case of grade 2 for an unexpected adverse event (for which a causal relationship could not be ruled out), or grade 3 for an expected adverse event (for which a causal relationship could not be ruled out), the dose was reduced to 2 mg per day (one tablet once after breakfast), and administration was continued. Alternatively, after a 2-week drug holiday, administration was restarted at 2 mg per day and continued, after confirming that the adverse event had improved to a grade one level lower than that before the drug holiday. However, in regard to an abnormal liver function of grade 3, in a case of a patient who had grade 3 liver dysfunction due to chronic GVHD from before enrollment, administration could be continued without dose reduction or drug holiday, even if the abnormal liver function remained at grade 3. In a case where drug holidays and restarts were repeated with administration at 2 mg per day due to an adverse event, administration could be continued by reducing the dose to 2 mg on alternate days. The survival rate without treatment failure (death, relapse, implementation of additional treatment) at the end of tamibarotene administration (week 24), i.e., failure-free survival (FFS), was evaluated. In a case where additional treatment was implemented for chronic GVHD, such a case was considered treatment failure at that point in time. In regard to the additional treatment herein, a change in the steroid dose was not considered, but in a case where the dose was increased to an amount exceeding 1 mg/kg/day, it was considered that additional treatment had been implemented. [Table 1] For the skin, eyeball, and gastrointestinal tract, the NIH organ-specific scores described in Biol. Blood Marrow Transplant, 2005 11(12), 945-56 were used. For the skin, a therapeutic effect was further evaluated using a total skin score. In addition, the 15-point Schubert scale in Table 2 was used for the oral cavity. […]

[3] = week 12 of administration, 18 subjects
[4] = week 24, out of the 16 subjects
[5] = week 24 of administration, 5/18
[6] = week 24 of administration, 18 subjects

## CC1(C)CCC(C)(C)c2cc(NC(=O)c3ccc(C(=O)O)cc3)ccc21 [tamibarotene, 4-[(5,6,7,8-tetrahydro-5,5,8,8-tetramethyl-2-naphthalenyl)carbamoyl]benzoic acid]
[1]; after 8 hours from a single dose of 2.0 mg, lowest concentration list, 480 min
  Plasma concentration: 3.26 ng/mL
[1]; after 10 hours from a single dose of 4.0 mg, lowest concentration list, 600 min
  Plasma concentration: 8.03 ng/mL and 7.01 ng/mL
[1]; after 24 hours from single dose of 6.0 mg, individual values, lowest concentration list, 1440 min
  Plasma concentration: 1.08 ng/mL and 1.14 ng/mL and 2.50 ng/mL
[1]; after hours (figure not given) from repeated doses (46 days) of 8.0 mg, highest concentration list
  Plasma concentration: 100.09 ng/mL
[1]; human, plasma, po, 2 mg, after 4 hours from a single dose of 2.0 mg, lowest concentration list
  concentration at 4 h: 8.98 ng/mL
[1]; human, plasma, po, 2 mg, after 8 hours from a single dose of 2.0 mg, lowest concentration list
  concentration at 8 h: 5.04 ng/mL
[1]; human, plasma, po, 4 mg, after 10 hours from a single dose of 4.0 mg, lowest concentration list
  concentration at 10 h: 9.56 ng/mL
[1]; human, plasma, po, 6 mg, after 4 hours from a single dose of 6.0 mg, highest concentration list
  concentration at 4 h: 80.2 ng/mL
[1]; human, plasma, po, 6 mg, after 4 hours from repeated doses (47 days) of 6.0 mg, highest concentration list
  concentration at 4 h: 92.5 ng/mL
[1]; human, plasma, po, 6 mg, after 6 hours from a single dose of 6.0 mg, lowest concentration list
  concentration at 6 h: 7.42 ng/mL
[1]; human, plasma, po, 6 mg, after 10 hours from a single dose of 6.0 mg, lowest concentration list
  concentration at 10 h: 7.72 ng/mL
[1]; human, plasma, po, 8 mg, after 4 hours from repeated doses (35 days) of 8.0 mg, highest concentration list
  concentration at 4 h: 84.6 ng/mL
[1]; human, plasma, po, 8 mg, after 4 hours from repeated doses (46 days) of 8.0 mg, highest concentration list
  concentration at 4 h: 85.2 ng/mL
[1]; human, plasma, po, 8 mg, after 24 hours from repeated doses (46 days) of 8.0 mg, lowest concentration list
  concentration at 24 h: 2.92 ng/mL
[1]; human, plasma, po, 10 mg, after 2 hours from repeated doses (34 days) of 10.0 mg, highest concentration list
  concentration at 2 h: 88 ng/mL
[1]; human, plasma, po, 10 mg, after 2 hours from repeated doses (58 days) of 10.0 mg, highest concentration list
  concentration at 2 h: 199 ng/mL
[1]; human, plasma, po, 10 mg, after 2 hours from repeated doses (59 days) of 10.0 mg, highest concentration list
  concentration at 2 h: 119 ng/mL
[1]; human, plasma, po, 10 mg, after 4 hours from repeated doses (34 days) of 10.0 mg, highest concentration list
  concentration at 4 h: 85.6 ng/mL
[1]; human, plasma, po, 10 mg, after 4 hours from repeated doses (36 days) of 10.0 mg, highest concentration list
  concentration at 4 h: 161 ng/mL
[1]; human, plasma, po, 10 mg, after 4 hours from repeated doses (58 days) of 10.0 mg, highest concentration list
  concentration at 4 h: 88.7 ng/mL
[1]; human, plasma, po, 10 mg, after 4 hours from repeated doses (59 days) of 10.0 mg, highest concentration list
  concentration at 4 h: 82.1 ng/mL
[1]; human, plasma, po, 10 mg, after 8 hours from repeated doses (36 days) of 10.0 mg, highest concentration list
  concentration at 8 h: 112 ng/mL
[2]; 2 years after the end of treatment, one subject per line
  follow-up of single subjects whose overall judgment was PR: able to discontinue the administration of PSL and reduce the dose of FK506 at 2 years after the end of treatment without exacerbation of chronic GVHD
[2]; Case 1, start vs end of administration, 200 days, Fig. 1
  knee joint flexion: notable improvement in knee joint flexion
[2]; Case 1, start vs end of administration, 200 days, tamibarotene/prednisolone/tacrolimus 4 mg/15 mg/4 mg at start, Fig. 1
  knee joint extension: notable improvement in knee joint extension
[2]; Case 2, start vs end of administration, 137 days, Fig. 2
  cutis symptom on knee: notable amelioration of pigmentation and skin sclerosis in the knee
[2]; Case 2, start vs end of administration, 137 days, tamibarotene/predonine/tacrolimus 4 mg/11 mg/0.2 mg at start, Fig. 2
  cutis symptom on lower part of back: amelioration of pigmentation and skin sclerosis in the lower part of the lower back
[2]; Case 3, start vs end of administration, 83 days, tamibarotene/prednisolone/tacrolimus 4 mg/10 mg/0.6 mg, Fig. 3
  oral cavity symptom: healing of ulcer and notable amelioration of erythema were seen in the oral cavity
[2]; all cases in Example 1
  response rate for each organ (Fig. 4), in words: the effect was seen in chronic GVHD of the eyeball and liver in addition to the skin and the oral cavity, or chronic GVHD maintained without exacerbation
[2]; entire administered population, final analysis, NIH Consensus Development Project Criteria (2005), 6/18, 95% confidence interval 13.3% to 59.0%
  overall response rate: 33.3%
[2]; entire administered population, sensitivity analysis, 7/18 cases, 95% confidence interval 17.3% to 64.3%
  overall response rate based on the NIH Consensus Development Project Criteria (2014): 38.9%
[2]; human, in vivo
  NIH response rate for the joints and fascia: 11%
  response rate for the lung function score: unchanged
[2]; influence of other diseases difficult to consider
  NIH response rate for the liver: 23%
[2]; left eye
  Eyeball: subjects with improvement in Schirmer's test: 7 subjects
[2]; n=5
  NIH response rate for the gastrointestinal tract: 20%
[2]; n=6
  NIH response rate for the genitals: 17%
[2]; patients in Examples, no amelioration before with various drugs
  amelioration in the symptom after administration: amelioration in the symptom was seen in all the patients
[2]; right eye
  Eyeball: subjects with improvement in Schirmer's test: 5 subjects
[2]; several subjects
  Oral cavity: symptoms: healing of ulcer and notable amelioration of erythema were seen in several subjects
  Skin: symptoms: notable amelioration of edema, skin sclerosis, pigmentation, or erythema in several subjects
[2]; subjects in whom a therapeutic effect was confirmed
  range of joint motion: notable improvement in the range of joint motion
[2]; [3]
  subjects for whom the overall judgment was SD: 7 subjects
  subjects for whom the overall judgment was PR: 5 subjects
[2]; week 24, compared with start of tamibarotene administration, 18 subjects
  subjects in whom the dose of PSL could be reduced by 50% or more: 3 subjects
[2]; week 24, compared with start of treatment, 18 subjects
  subjects in whom the dose of PSL could be reduced: 7 subjects
[2]; week 24, 14 subjects
  Eyeball: NIH response rate: 14%
  Eyeball: subjects evaluated as CR: No subject
  Eyeball: subjects evaluated as PR: two
[2]; week 24, 16 subjects
  Oral cavity: NIH response rate: 25%
  Oral cavity: subjects evaluated as CR: Two
  Oral cavity: subjects evaluated as PR: two
  Skin: NIH response rate: 25%
  Skin: subjects evaluated as CR: One
  Skin: subjects evaluated as PR: three
[2]; [4]
  Oral cavity: subjects with improved score on the 15-point Schubert scale: 10 subjects
  Skin: subjects with improved total skin score: 8 subjects
[2]; [5]
  failure-free survival (FFS): 28%
  response rate: 28%
[2]; [6]
  subjects for whom the overall judgment was SD: 7 subjects
  subjects for whom the overall judgment was PR: 5 subjects
